The source made the active and inactive calls. No cut-off for these calls is given here.
Key:
[1] = Hepatotoxicity in zymosan-induced rat arthritis model assessed as change in hepatocyte karyoplasm at 150 mg/kg, ig administered once daily for 7 days by hematoxylin-eosin staining based histological analysis; format: toxicity, organism-based, Liver; conditions: in vivo, po, 168 h, time 7 day
[2] = Hepatotoxicity in zymosan-induced rat arthritis model assessed as change in hepatocyte cytoplasmic appearance at 150 mg/kg, ig administered once daily for 7 days by hematoxylin-eosin staining based histological analysis; format: toxicity, organism-based, Liver; conditions: in vivo, po, 168 h, time 7 day
[3] = Hepatotoxicity in zymosan-induced rat arthritis model assessed as effect on general architecture of liver at 150 mg/kg, ig administered once daily for 7 days by hematoxylin-eosin staining based histological analysis; format: toxicity, organism-based; conditions: in vivo, po, 168 h, time 7 day
[4] = Hepatotoxicity in zymosan-induced rat arthritis model assessed as effect on sinusoids arrangement at 150 mg/kg, ig administered once daily for 7 days by hematoxylin-eosin staining based histological analysis; format: toxicity, organism-based, Liver; conditions: in vivo, po, 168 h, time 7 day
[5] = Hepatotoxicity in zymosan-induced rat arthritis model assessed as appearance of vacuoles in hepatocyte cytoplasm at 150 mg/kg, ig administered once daily for 7 days by hematoxylin-eosin staining based histological analysis; format: toxicity, organism-based, Liver; conditions: in vivo, po, 168 h, time 7 day
[6] = Hepatotoxicity in zymosan-induced rat arthritis model assessed as effect on sinusoids elongation at 150 mg/kg, ig administered once daily for 7 days by hematoxylin-eosin staining based histological analysis; format: toxicity, organism-based, Liver; conditions: in vivo, po, 168 h, time 7 day
[7] = Hepatotoxicity in zymosan-induced rat arthritis model assessed as effect on beam structure of liver at 150 mg/kg, ig administered once daily for 7 days by hematoxylin-eosin staining based histological analysis; format: toxicity, organism-based; conditions: in vivo, po, 168 h, time 7 day
Rattus norvegicus [8] = test: Antipyretic activity against LPS-induced polyphasic febrile response in rats assessed as change in core body temperature at 150 mg/kg, po treated 40 mins prior to LPS addition and measured after 160 mins during phase 1 (reference value: 0.85 deg C); format: functional; conditions: time 200 min, 3.333 h
Rattus norvegicus [9] = test: Antipyretic activity against LPS-induced polyphasic febrile response in rats assessed as return of body temperature to background value at 150 mg/kg, po treated 40 mins prior to LPS addition and measured after 235 mins; format: functional, organism-based; conditions: time 275.0 min
Rattus norvegicus [10] = test: Antipyretic activity against LPS-induced polyphasic febrile response in rats assessed as suppression of rise in core body temperature at 150 mg/kg, po treated 40 mins prior to LPS addition and measured after 160 mins relative to control; format: functional; conditions: time 200 min, 3.333 h
[11] = Hepatotoxicity in zymosan-induced rat arthritis model assessed as disruption of hepatocyte membrane at 150 mg/kg, ig administered once daily for 7 days by hematoxylin-eosin staining based histological analysis; format: toxicity, organism-based, Liver; conditions: in vivo, po, 168 h, time 7 day
Rattus norvegicus [12] = test: Antinociceptive activity in zymosan-induced rat model of thermal nociceptive hypersensitivity assessed as nociceptive response inhibition at 150 mg/kg, ig administered once daily for 7 days and measured 1 hr post-zymosan challenge on day 7 by hot-plate test (reference value: -42.4%); format: functional; conditions: po, 168 h, time 7 day
Rattus norvegicus [13] = test: Antinociceptive activity in zymosan-induced rat arthritis model assessed as nociceptive response inhibition at 150 mg/kg, ig administered once daily for 7 days and measured 1 hr post-zymosan challenge on day 7 by Randall-Selitto test (reference value: -34.6%); format: functional; conditions: po, 168 h, time 7 day
[14] = Hepatotoxicity in zymosan-induced rat arthritis model assessed as change in shape of liver portal tracts at 150 mg/kg, ig administered once daily for 7 days by hematoxylin-eosin staining based histological analysis; format: toxicity, organism-based; conditions: in vivo, po, 168 h, time 7 day
[15] = Hepatotoxicity in zymosan-induced rat arthritis model assessed as change in hepatocyte shape at 150 mg/kg, ig administered once daily for 7 days by hematoxylin-eosin staining based histological analysis; format: toxicity, organism-based, Liver; conditions: in vivo, po, 168 h, time 7 day
[16] = Hepatotoxicity in zymosan-induced rat arthritis model assessed as change in shape of liver central veins at 150 mg/kg, ig administered once daily for 7 days by hematoxylin-eosin staining based histological analysis; format: toxicity, organism-based; conditions: in vivo, po, 168 h, time 7 day
[17] = Hepatotoxicity in zymosan-induced rat arthritis model assessed as change in hepatocyte nucleus size at 150 mg/kg, ig administered once daily for 7 days by hematoxylin-eosin staining based histological analysis; format: toxicity, organism-based, Liver; conditions: in vivo, po, 168 h, time 7 day
Rattus norvegicus [18] = test: Antipyretic activity against LPS-induced polyphasic febrile response in rats assessed as return of body temperature to background value at 80 mg/kg, po treated 40 mins prior to LPS addition and measured after 245 mins; format: functional, organism-based; conditions: time 285.0 min
Rattus norvegicus [19] = test: Antinociceptive activity in zymosan-induced rat model of thermal nociceptive hypersensitivity assessed as nociceptive response inhibition at 80 mg/kg, ig administered once daily for 7 days and measured 1 hr post-zymosan challenge on day 7 by hot-plate test (reference value: -42.4%); format: functional; conditions: po, 168 h, time 7 day
Rattus norvegicus [20] = test: Antinociceptive activity in zymosan-induced rat arthritis model assessed as nociceptive response inhibition at 80 mg/kg, ig administered once daily for 7 days and measured 1 hr post-zymosan challenge on day 7 by Randall-Selitto test (reference value: -34.6%); format: functional; conditions: po, 168 h, time 7 day
Rattus norvegicus [21] = test: Antipyretic activity against LPS-induced polyphasic febrile response in rats assessed as change in core body temperature at 80 mg/kg, po treated 40 mins prior to LPS addition and measured after 10 mins during phase 1 (reference value: 0.85 deg C); format: functional, organism-based; conditions: time 50.0 min

**Q.** What does the source list for CCCCCCCC(=O)Nc1ccc(OCC(=O)O)cc1?
**A.** Activity [1]: Non-toxic; Activity [2]: Non-toxic; Activity [3]: Non-toxic; Activity [4]: Non-toxic; Activity [5]: Non-toxic; Activity [6]: Non-toxic; Activity [7]: Non-toxic; T (Rattus norvegicus [8]): 0.28 °C; Activity (Rattus norvegicus [9]): Active; fold change (FC) (Rattus norvegicus [10]): 3; Activity [11]: Non-toxic; inhibition in vivo at 150 mg/kg (Rattus norvegicus [12]): 8.5%; inhibition in vivo at 150 mg/kg (Rattus norvegicus [13]): 21.3%; Activity [14]: Non-toxic; Activity [15]: Non-toxic; Activity [16]: Non-toxic; Activity [17]: Non-toxic

**Q.** For CC(=O)Nc1ccc(O)cc1 [ACETAMINOPHEN], which Activity (Rattus norvegicus [18]) is on record?
**A.** Its Activity is “Active”.

**Q.** What about the inhibition in vivo at 80 mg/kg (Rattus norvegicus [19]) of the same molecule?
**A.** Its inhibition in vivo at 80 mg/kg is 53%.

**Q.** What about the inhibition in vivo at 80 mg/kg (Rattus norvegicus [20]) of the same molecule?
**A.** The inhibition in vivo at 80 mg/kg was 28.5%.

**Q.** What about the ΔTm (Rattus norvegicus [21]) of the same molecule?
**A.** Its ΔTm is 0.34 °C.
